Assay results published in publication PMC12192500, “Selective Dual Inhibition of TNKS1 and CDK8 by TCS9725 Attenuates STAT1/β-Catenin/TGFβ1 Signaling in Renal Cancer” (Current Issues in Molecular Biology, 2025).
pIC50: −log10 of the molar value.

What was measured:
[1] = target: CDK8 (Cyclin-dependent kinase 8) (Homo sapiens, UniProt P49336); test: luminescence-based kinase assay; type: biochemical
[2] = target: T1, TNKS1 (Tankyrase 1, PARP5A) (Homo sapiens, UniProt O95271); test: TNKS1 colorimetric PARP activity assay kit (BPS #[…]), histone-coated plate; type: biochemical
T1 construct: gene TNKS
T1 sequence (O95271 whole entry): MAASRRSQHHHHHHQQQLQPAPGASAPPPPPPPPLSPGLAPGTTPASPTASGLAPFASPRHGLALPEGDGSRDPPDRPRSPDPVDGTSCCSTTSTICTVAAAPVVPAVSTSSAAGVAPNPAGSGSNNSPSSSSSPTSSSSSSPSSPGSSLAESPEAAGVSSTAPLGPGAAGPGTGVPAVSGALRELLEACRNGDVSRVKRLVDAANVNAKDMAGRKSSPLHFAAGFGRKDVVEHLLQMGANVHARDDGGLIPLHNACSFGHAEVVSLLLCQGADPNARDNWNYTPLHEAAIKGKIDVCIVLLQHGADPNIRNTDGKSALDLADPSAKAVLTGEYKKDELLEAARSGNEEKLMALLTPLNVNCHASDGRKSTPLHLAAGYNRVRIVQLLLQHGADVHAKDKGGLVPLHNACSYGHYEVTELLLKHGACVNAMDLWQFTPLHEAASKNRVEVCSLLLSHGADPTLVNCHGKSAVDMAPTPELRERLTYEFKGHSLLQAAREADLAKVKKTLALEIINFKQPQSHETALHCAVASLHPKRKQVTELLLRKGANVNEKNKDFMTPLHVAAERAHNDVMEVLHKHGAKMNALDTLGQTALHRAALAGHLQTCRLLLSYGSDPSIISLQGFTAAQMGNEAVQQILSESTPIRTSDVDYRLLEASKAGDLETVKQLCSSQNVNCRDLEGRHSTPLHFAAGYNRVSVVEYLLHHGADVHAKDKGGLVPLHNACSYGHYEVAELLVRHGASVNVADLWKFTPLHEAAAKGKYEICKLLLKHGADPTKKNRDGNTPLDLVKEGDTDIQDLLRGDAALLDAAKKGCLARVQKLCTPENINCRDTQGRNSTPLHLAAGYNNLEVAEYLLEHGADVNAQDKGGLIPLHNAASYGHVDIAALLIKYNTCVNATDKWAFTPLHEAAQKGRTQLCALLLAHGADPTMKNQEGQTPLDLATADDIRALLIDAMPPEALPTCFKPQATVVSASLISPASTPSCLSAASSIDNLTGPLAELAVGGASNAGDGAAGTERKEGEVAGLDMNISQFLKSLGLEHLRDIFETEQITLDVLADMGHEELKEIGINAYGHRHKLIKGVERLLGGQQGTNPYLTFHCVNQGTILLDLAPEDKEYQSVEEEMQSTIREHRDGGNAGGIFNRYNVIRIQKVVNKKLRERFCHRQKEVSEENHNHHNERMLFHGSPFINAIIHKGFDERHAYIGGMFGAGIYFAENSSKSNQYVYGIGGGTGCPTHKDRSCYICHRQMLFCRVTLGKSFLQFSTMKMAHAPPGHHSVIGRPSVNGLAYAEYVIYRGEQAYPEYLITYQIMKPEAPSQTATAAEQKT

CDK8 (Cyclin-dependent kinase 8), sequence (P49336 whole entry): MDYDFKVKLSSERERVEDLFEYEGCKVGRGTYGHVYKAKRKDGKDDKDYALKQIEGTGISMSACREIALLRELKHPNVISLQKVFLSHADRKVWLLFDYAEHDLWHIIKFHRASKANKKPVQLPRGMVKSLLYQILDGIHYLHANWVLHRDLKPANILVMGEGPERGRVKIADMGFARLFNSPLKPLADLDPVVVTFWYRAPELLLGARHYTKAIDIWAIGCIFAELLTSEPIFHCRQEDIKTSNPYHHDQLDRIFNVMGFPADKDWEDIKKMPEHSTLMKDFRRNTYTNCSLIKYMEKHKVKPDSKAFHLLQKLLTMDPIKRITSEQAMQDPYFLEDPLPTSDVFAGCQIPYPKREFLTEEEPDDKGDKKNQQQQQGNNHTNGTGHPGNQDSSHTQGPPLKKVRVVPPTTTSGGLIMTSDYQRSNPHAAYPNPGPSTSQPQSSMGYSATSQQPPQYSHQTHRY

O=c1cccc(-c2ccc(Cl)cc2)o1 [TCS9725, 6-(4-chlorophenyl)-2H-pyran-2-one]
pIC50 [1]: 6.39
pIC50 [2]: 6.61
